From ChEMBL document CHEMBL1759896, “Asymmetric total synthesis of (+)- and (-)-clusianone and (+)- and (-)-clusianone methyl enol ether via ACC alkylation and evaluation of their anti-HIV activity” (Bioorg Med Chem Lett, 2011) come the findings set out here.

Active and inactive are the calls of the source. The rule behind the calls is not given here.

Common to all, as to assay type: functional, organism-based
Experiment [1] has as its system Human immunodeficiency virus 1. Kind of experiment: Antiviral activity against HIV1 Env-pseudovirus infected in mouse 3T3.T4.CCR5 cells after 2 days by luciferase assay.
The test system of experiment [2] is Human immunodeficiency virus 1. Kind of experiment: Antiviral activity against HIV1 Env-pseudovirus infected in human Jurkat E6-1 cells after 2 days by luciferase assay. Particulars: for IC50: Human immunodeficiency virus 1, Jurkat, 48 h.
Experiment [3] relates to Human immunodeficiency virus 1. Kind of experiment: Antiviral activity against HIV1 MN infected in human C8166 cells. The conditions noted are these: Human immunodeficiency virus 1, MN.

By IC50 is commonly meant the concentration that inhibits the measured activity by half. As to `COC1=C(C(=O)c2ccccc2)C(=O)[C@]2(CC=C(C)C)C[C@H](CC=C(C)C)C(C)(C)C1(CC=C(C)C)C2=O`, the IC50 result in experiment [1] (3t3.t4.ccr5) is “Not Active”. `CC(C)=CC[C@H]1C[C@]2(CC=C(C)C)C(=O)[C@@](CC=C(C)C)(C(=O)C(C(=O)c3ccccc3)=C2O)C1(C)C` (stereo in doubt; 1): the outcome in experiment [2] was Active. A word on the EC50: it is the concentration needed to bring the measured effect to its halfway point. A low value points to a more potent agent. In turn, `CC(C)=CC[C@H]1C[C@]2(CC=C(C)C)C(=O)[C@@](CC=C(C)C)(C(=O)C(C(=O)c3ccccc3)=C2O)C1(C)C` (stereo in doubt; 1) [6-EPI-CLUSIANONE] registered an EC50 in experiment [3] of 0.02 µM. In addition, the IC50 in experiment [1] (Human immunodeficiency virus 1, 3T3.T4.CCR5, 48 h, read-out: IC50) is 1.53 µM. In the case of `CC(C)=CC[C@H]1C[C@]2(CC=C(C)C)C(=O)[C@@](CC=C(C)C)(C(=O)C(C(=O)c3ccccc3)=C2O)C1(C)C` (stereo in doubt; 2), the result in experiment [2] was Active. Take `CC(C)=CC[C@H]1C[C@]2(CC=C(C)C)C(=O)[C@@](CC=C(C)C)(C(=O)C(C(=O)c3ccccc3)=C2O)C1(C)C` (stereo in doubt; 2) [6-EPI-CLUSIANONE]: the IC50 in experiment [1] (3t3.t4.ccr5, read-out: IC50) was 1.13 µM. `Cc1ccnc2c1NC(=O)c1cccnc1N2C1CC1` [NEVIRAPINE] registered an IC50 in experiment [2] of 0.04 µM. The same measure, in the same setting: then `Cc1cn([C@H]2C[C@H](N=[N+]=[N-])[C@@H](CO)O2)c(=O)[nH]c1=O` [ZIDOVUDINE], with 0.12 µM.
